Legend:
[1] = tested on: TR146 cell layers; assay: Carboxyfluorescein permeability assay (2 h) after 48 h inflammation treatment; type: in vitro ADME, human
Protocol: The resulting slope PS [µL/min] was calculated inversely. […] (2) 1/PScell=1/PSall−1/PSblank
ThinCerts® were seeded with cells as described above. Stock solutions of tumour necrosis factor α (TNF-α, Sigma-Alrich, H8916, 10 µg), Interleukin-1ß (IL-1ß, PeproTech, 200-01B, 2 µg) and Interferon-γ (IFN-γ, PeproTech, Vienna, Austria, 300-02, 20 µg) were prepared with Dulbecco’s Phosphate Buffered Saline (DPBS, Thermo-Fisher Scientific, Vienna, Austria, 14190094) containing 0.1% bovine serum albumin (BSA, Roth, Graz, Austria, 8076.2) at a concentration of 10 µg/mL and stored at −20 °C until usage. Three days before the experiments, cell layers and blanks were washed twice on the basolateral compartment with 900 µL cultivation media (DMEM supplemented with 10% Fetal Calf Serum and 1% Penicillin/Streptomycin) to remove anti-inflammatory hydrocortisone residues (a component of media supplement HKGS) and were further cultivated in cultivation media.
Prior to treating cells with prepared DMEM solutions, TEER was measured in cultivation media DMEM supplemented with 1% Penicillin/Streptomycin and 10% Fetal Calf Serum. Subsequently, cell layers and blanks were washed with DMEM (without supplements) twice on the apical and basolateral compartment, followed by TEER measurements in DMEM. Media of cells were replaced with previously prepared DMEM solutions. Control media was applied on the blanks. After 48 h treatment at 37 °C, 5% CO2 and 95% humidity TEER was measured. Subsequently, 10 µM carboxyfluorescein was added to the apical DMEM solutions and incubated in the incubator at 37 °C for 2 h. Media were immediately collected and measured for the RFU content using the EnSpire as described above. Afterwards, media were stored at −20 °C until further usage. Two cell-grown ThinCerts^TM of each treatment were pooled as one sample with 350 µL lysis buffer supplemented with 1% ß-mercaptoethanol and stored at −80 °C for RNA isolation.

[2] = tested on: TR146 cell layers; conditions: human, not told, 4 h
[3] = tested on: oral mucosa epithelium in vitro model based on human cell line TR146; assay: in vitro; conditions: for Permeability coefficient without inflammation and inhibitor: Table S3; for increase of permeability coefficient with probenecid compared to no inhibitor / increase of permeability coefficient with verapamil compared to no inhibitor / cumulated concentration of NSAID in the basolateral compartment: 100 µM; for cumulated concentration of NSAID in the basolateral compartment: 4 h
Protocol: (§1) As soon as cells reached confluency, cultivation was switched from submerged to airlift and 1% Human Keratinocytes Growth Supplements (HKGS, Gibco, Thermofisher, Vienna, Austria, S0015) was added to the cultivation media on the basolateral compartment. Media were changed every 2–3 days until the day of experiment on day 29. Cells from passage 14–36 were used for experiments. Transepithelial electric resistance (TEER) was measured on day of experiment, as described in detail previously.
(§2) Solutions were diluted to 10 µM (carboxyfluorescein) or 100 µM in DMEM on day of experiments.
(§3) First, TEER was measured in cultivation media on the day of experiment. Afterwards, cells and blanks were washed twice with DMEM on the apical (300 µL) and basolateral (900 µL) compartments and selected cells and blanks were treated with DMEM with or without 100 µM probenecid or verapamil on the apical and basolateral side at 37 °C for 30 min. […] To cells which were pre-incubated with probenecid or verapamil, 100 µM probenecid or verapamil was applied apically as well. DMSO content was adapted for cells with no inhibitors, and DMSO and dd-H2O content was adjusted in the basolateral compartment as well in order to apply the same vehicle concentrations on the apical and basolateral compartment. […] Subsequently, duplicates of apical sample were collected, and samples were frozen at −80 °C until further analysis with High-Performance Liquid Chromatography (HPLC).
(§4) Peaks were quantified using the software Chromeleon Version 7.2.6, and corresponding mili absorbance unit × time [mAU × min] values were used for data analysis.
(§5) Mean values of relative fluorescence unit (RFU) or detected area [mAU × min] were used for calculation. For the first timepoint, the clearance [µL] for the detected area was calculated as shown in the formula below (1a), with Abasot1 as the measured area [mAU × min] at the first time point of the basolateral sample, Vbaso as the basolateral volume [µL] and Astock as the area measured for the applied stock solution. […] Clearance [µL] for carboxyfluorescein was calculated with the same formulas using RFU. (1a) Clearance=Abasot1×Vbaso/AStock (1b) Clearancetn=Abasotn×Vbaso/AStock−∑(Abasotn−1 ×3− Abasot1 ×3)
(§6) Cleared volume [µL] was calculated by plotting the sum of clearance at all time points over time [min]. The resulting slope PS [µL/min] was calculated inversely. For calculation of the PScell, the inverse PS blanks were subtracted, as shown below in Formula (2). (2) 1/PScell=1/PSall−1/PSblank
(§7) The final permeability coefficient is calculated by dividing the inverse PScell by the area of the ThinCerts (0.336 cm^2) and multiplying by a conversion factor to give the permeability coefficient as µm/min.

[4] = tested on: ECV304 cell monolayers; conditions: cited from earlier work
[5] = CXlogD at pH 7.4 ref https://ebi.ac.uk (02.04.2024); cited from earlier work
[6] = tested on: MRP4 (ABCC4); conditions: cited from earlier work
[7] = Transport study across oral mucosa Transwell model, apical to basolateral, 240 min; conditions: human
Protocol: as §1, §2, §3, §4, §5, §6, §7

[8] = tested on: COX-2; parameters: method as in PMID 10866999; conditions: human cell lines ref 59; cited from earlier work
[9] = tested on: COX-2; parameters: method as in PMID 16678543; conditions: 48 h post-surgery, compared to the placebo group ref 62; cited from earlier work
[10] = Transport study across blank inserts without cells; conditions: mean ± SD
Protocol: as §3, §5, §6

[11] = parameters: method as in PMID 15157608; conditions: cited from earlier work
[12] = Celexocib study, w/o Inhibitor, mean ± SD
[13] = with 100 µM verapamil, mean ± SEM
[14] = without inhibitor, 100 µM apical (CF 10 µM), mean ± SEM
[15] = Diclofenac study, w/o Inhibitor, mean ± SD
[16] = with 100 µM probenecid, mean ± SEM
[17] = Celexocib study, Probenecid, mean ± SD
[18] = Celexocib study, Verapamil, mean ± SD
[19] = Diclofenac study, Probenecid, mean ± SD
[20] = Diclofenac study, Verapamil, mean ± SD
[21] = Ibuprofen study, Probenecid, mean ± SD
[22] = Ibuprofen study, Verapamil, mean ± SD
[23] = Ibuprofen study, w/o Inhibitor, mean ± SD
[24] = Piroxicam study, Probenecid, mean ± SD
[25] = Piroxicam study, Verapamil, mean ± SD
[26] = Piroxicam study, w/o Inhibitor, mean ± SD

carboxyfluorescein [CF]
permeability coefficient for CF ([1]; across cells treated with cytokines 48 h, two hours): 16.16 ± 13.05 µm/min
permeability coefficient for CF ([1]; across cells treated with cytokines with ibuprofen 48 h, two hours): 16.75 ± 9.76 µm/min
permeability coefficient for CF ([1]; across cells treated with ibuprofen 48 h, two hours): 12.83 ± 3.57 µm/min
permeability coefficient for CF ([1]; across control cells, two hours after 48 h): 12.41 ± 5.15 µm/min
permeability coefficient [2]: 14.26 ± 7.14 µm/min
permeability coefficient ([3]; human, 240 min): 4.63 ± 0.24 µm/min
permeability coefficient across ECV304 cell monolayers [4]: ~ 5 µm/min

Cc1ccc(-c2cc(C(F)(F)F)nn2-c2ccc(S(N)(=O)=O)cc2)cc1 [celecoxib]
XlogD [5]: 4.01
inhibitory effect on MRP4 function [6]: weaker in comparison to ibuprofen
Papp A→B at 240 min ([7]; PC (permeability of cell), Celexocib study, w/o Inhibitor, mean ± SD): 0.733 ×10⁻⁶ cm/s
Papp A→B at 240 min ([7]; with probenecid 100 µM, PC (permeability of cell), Celexocib study, Probenecid, mean ± SD): 10.1 ×10⁻⁶ cm/s
Papp A→B at 240 min ([7]; with probenecid 100 µM, PE (permeability of cell + blank), Celexocib study, Probenecid, mean ± SD): 2.72 ×10⁻⁶ cm/s
Papp A→B at 240 min, 100 µM ([7]; with probenecid 100 µM, permeability coefficient, with 100 µM probenecid, mean ± SEM): 21.2 ×10⁻⁶ cm/s
Papp A→B at 240 min ([7]; with verapamil 100 µM, PC (permeability of cell), Celexocib study, Verapamil, mean ± SD): 3.5 ×10⁻⁶ cm/s
PE (permeability of cell + blank) [3, 12]: 0.36 ± 0.15 µm/min
Permeability coefficient without inflammation and inhibitor ([3]; mean ± SD): 0.44 ± 0.19 µm/min
increase of permeability coefficient with probenecid compared to no inhibitor ([3]; human, 240 min): 13.63 fold
increase of permeability coefficient with verapamil compared to no inhibitor ([3]; human, 240 min): 4.72 fold
cumulated concentration of NSAID in the basolateral compartment ([3]; human): 0.0071 ± 0.00032 nmol/mm^2
permeability coefficient [3, 13]: 2.10 ± 0.92 µm/min
permeability coefficient [3, 14]: 0.44 ± 0.10 µm/min

O=C(O)Cc1ccccc1Nc1c(Cl)cccc1Cl [diclofenac]
XlogD [5]: 1.1
Papp A→B at 240 min ([7]; PC (permeability of cell)): 11.1 ×10⁻⁶ cm/s
Papp A→B at 240 min ([7]; PE (permeability of cell + blank)): 3.43 ×10⁻⁶ cm/s
PE (permeability of cell + blank) [3, 15]: 2.11 ± 0.22 µm/min
Permeability coefficient without inflammation and inhibitor ([3]; mean ± SD): 3.64 ± 0.84 µm/min
PE (permeability of cell + blank) ([3]; human, 240 min): 2.98 ± 1.37 µm/min
increase of permeability coefficient with probenecid compared to no inhibitor ([3]; human, 240 min): 1.83 fold
cumulated concentration of NSAID in the basolateral compartment ([3]; human): 0.043 ± 0.0046 nmol/mm^2
permeability coefficient [3, 16]: 6.66 ± 1.87 µm/min
permeability coefficient [3, 13]: 3.54 ± 0.38 µm/min
permeability coefficient [3, 14]: 3.64 ± 0.34 µm/min

O=C(O)c1ccccc1Nc1cccc(C(F)(F)F)c1 [flufenamic acid]
COX-2 expression [8]: NF-κB-independent upregulation of COX-2

CS(=O)(=O)c1ccc(C2=C(c3ccccc3)C(=O)OC2)cc1 [rofecoxib]
COX-2 expression in the oral mucosa [9]: induced COX-2 expression

CN1C(=O)CN=C(c2ccccc2)c2cc(Cl)ccc21 [diazepam]
PS blank ([10]; Diclofenac study, Probenecid): 0.15 ± 0.03 µL/min
PS blank ([10]; Diclofenac study, Verapamil): 0.13 ± 0.03 µL/min
PS blank ([10]; Diclofenac study, w/o Inhibitor): 0.17 ± 0.01 µL/min
PS blank ([10]; Ibuprofen study, Probenecid): 0.14 ± 0.01 µL/min
PS blank ([10]; Ibuprofen study, Verapamil): 0.12 ± 0.06 µL/min
PS blank ([10]; Ibuprofen study, w/o Inhibitor): 0.21 ± 0.03 µL/min
PS blank ([10]; Piroxicam study, Probenecid): 0.12 ± 0.03 µL/min
PS blank ([10]; Piroxicam study, Verapamil): 0.09 ± 0.02 µL/min
PS blank ([10]; Piroxicam study, w/o Inhibitor): 0.19 ± 0.02 µL/min
PS blank ([10]; study, Probenecid): 0.20 ± 0.004 µL/min
PS blank ([10]; study, Verapamil): 0.13 ± 0.05 µL/min
PS blank ([10]; study, w/o Inhibitor): 0.18 ± 0.003 µL/min
PS all (cell + blank) [3, 17]: 0.14 ± 0.004 µL/min
PS cell [3, 17]: 0.46 ± 0.04 µL/min
PS all (cell + blank) [3, 18]: 0.09 ± 0.05 µL/min
PS cell [3, 18]: 0.41 ± 0.35 µL/min
PS all (cell + blank) [3, 12]: 0.11 ± 0.02 µL/min
PS cell [3, 12]: 0.38 ± 0.19 µL/min
PS all (cell + blank) [3, 19]: 0.12 ± 0.01 µL/min
PS cell [3, 19]: 0.57 ± 0.21 µL/min
PS all (cell + blank) [3, 20]: 0.1 ± 0.03 µL/min
PS cell [3, 20]: 0.68 ± 0.69 µL/min
PS all (cell + blank) [3, 15]: 0.11 ± 0.03 µL/min
PS cell [3, 15]: 0.44 ± 0.35 µL/min
PS all (cell + blank) [3, 21]: 0.09 ± 0.02 µL/min
PS cell [3, 21]: 0.29 ± 0.16 µL/min
PS all (cell + blank) [3, 22]: 0.08 ± 0.02 µL/min
PS cell [3, 22]: 0.39 ± 0.35 µL/min
PS all (cell + blank) [3, 23]: 0.12 ± 0.02 µL/min
PS cell [3, 23]: 0.31 ± 0.08 µL/min
PS all (cell + blank) [3, 24]: 0.1 ± 0.01 µL/min
PS cell [3, 24]: 0.32 ± 0.14 µL/min
PS all (cell + blank) [3, 25]: 0.05 ± 0.03 µL/min
PS cell [3, 25]: 0.24 ± 0.36 µL/min
PS all (cell + blank) [3, 26]: 0.12 ± 0.04 µL/min
PS cell [3, 26]: 0.45 ± 0.24 µL/min

CN1C(C(=O)Nc2ccccn2)=C(O)c2ccccc2S1(=O)=O [piroxicam]
inhibitory effect on MRP4 function [6]: weaker in comparison to ibuprofen
Papp A→B at 240 min ([7]; PC (permeability of cell), Piroxicam study, w/o Inhibitor, mean ± SD): 8.1 ×10⁻⁶ cm/s
Papp A→B at 240 min ([7]; with probenecid 100 µM, PC (permeability of cell), Piroxicam study, Probenecid, mean ± SD): 9.68 ×10⁻⁶ cm/s
Papp A→B at 240 min ([7]; with probenecid 100 µM, PE (permeability of cell + blank), Piroxicam study, Probenecid, mean ± SD): 4.52 ×10⁻⁶ cm/s
Papp A→B at 240 min ([7]; with verapamil 100 µM, PC (permeability of cell), Piroxicam study, Verapamil, mean ± SD): 10 ×10⁻⁶ cm/s
Papp A→B at 240 min ([7]; with verapamil 100 µM, PE (permeability of cell + blank), Piroxicam study, Verapamil, mean ± SD): 5.12 ×10⁻⁶ cm/s
PE (permeability of cell + blank) [3, 26]: 2.44 ± 0.76 µm/min
Permeability coefficient without inflammation and inhibitor ([3]; mean ± SD): 4.86 ± 2.41 µm/min
increase of permeability coefficient with probenecid compared to no inhibitor ([3]; human, 240 min): 1.19 fold
increase of permeability coefficient with verapamil compared to no inhibitor ([3]; human, 240 min): 1.23 fold
cumulated concentration of NSAID in the basolateral compartment ([3]; human): 0.055 ± 0.016 nmol/mm^2
permeability coefficient [3, 16]: 5.81 ± 0.61 µm/min
permeability coefficient [3, 13]: 6.00 ± 0.70 µm/min
permeability coefficient [3, 14]: 4.86 ± 0.84 µm/min

C[C@]12CCC(=O)C=C1CC[C@@H]1[C@@H]2[C@@H](O)C[C@@]2(C)[C@H]1CC[C@]2(O)C(=O)CO [hydrocortisone]
biological half-life [11]: 8–12 h
